Earlier results as cited in patent publication US12594236B2, “Method of treating acute exacerbation of schizophrenia with long-acting injectable depot composition” (LABORATORIOS FARMACEUTICOS ROVI, S.A., priority 2021, dated 2026).
Where two headings read alike, the source gives them in different places.

Test system: acute schizophrenia

SMILES	placebo-adjusted reduction of the PANSS total score (441 mg, 12 weeks, oral aripiprazole 3 weeks after randomization)	placebo-adjusted reduction of the PANSS total score (882 mg, 12 weeks, oral aripiprazole 3 weeks after randomization)	placebo-adjusted reduction of the PANSS total score (25 mg eq, 13 weeks)	placebo-adjusted reduction of the PANSS total score (100 mg eq, 13 weeks)	placebo-adjusted reduction of the PANSS total score (150 mg eq, 13 weeks)
CCCCCCCCCCCC(=O)OCN1C(=O)CCc2ccc(OCCCCN3CCN(c4cccc(Cl)c4Cl)CC3)cc21 [Aripiprazole Lauroxil]	−10.9	−11.9			
CCCCCCCCCCCCCCCC(=O)OC1CCCn2c1nc(C)c(CCN1CCC(c3noc4cc(F)ccc34)CC1)c2=O (centres unmarked) [Paliperidone Palmitate]			−5.1	−8.7	−9.8
